Assays:
[1] = test system: phenylephrine pre-constricted rat aortic rings; assay: Relaxation of phenylephrine pre-constricted rat aortic rings in vitro; set-up: species or system rat (Sprague-Dawley); details: phenylephrine 10^-6 M pre-constricted rat aortic rings; for EC50: read-out: In vitro EC50 (effective concentration to produce a 50% relaxation response)
Description: As noted above, the present invention also provides methods for relaxing smooth muscle in a warm-blooded animal (e.g., humans, chimps, cows, goats, pigs, dogs, cats, rats or mice) comprising the step of administering to the animal a therapeutically effective amount of a transition-metal nitrosyl complex as described above. Briefly, the efficacy (and therapeutically effective amount) of a particular transition-metal nitrosyl complex may be readily determined by both in vitro and in vivo techniques. See generally Blattner et al., Experiments on Isolated Smooth Muscle Preparations, Hugo Sachs Elektronik KG, 1980 (incorporated herein by reference in its entirety). For example, within one embodiment, a small animal such as a rat, rabbit, or guinea-pig is sacrificed and exsanguinated. The required tissue (e.g., artery, vein, stomach, ileum, jejunum, caecum, colon, uterus, spleen, trachea, seminal vesicle, ductus deferens, or corpus cavernosum) is removed and placed in an oxygenated physiological solution (e.g., Krebs or Tyrode solution). This tissue is then cut such that one end is attached to the bottom of a muscle bath, and the other end to a force-displacement transducer (for example, Grass FT-03-C, Quincy, Mass.) for isometric recording with a physiological recorder (Grass, Model 79G). An appropriate pre-load (0.5 to 10 grams, depending on the tissue) is then applied, and the tissue equilibrated in the bath for one hour prior to the start of the study.
The measurement of smooth muscle contractile response may then be performed essentially as described by Pang and Sutter in Blood Vessels 17:293-301, 1980 (incorporated herein by reference in its entirety). Briefly, a dose-response curve of an agonist (e.g., phenylephrine, norepinephrine) is first obtained by measuring contractile response of the muscle as a function of agonist concentration. Response to the agonist is then measured beginning with the addition of the lowest dose of agonist to the bath. Each dose is equilibrated in the bath for 2 to 6 minutes in order to assure a steady state response, prior to proceeding to the next higher dose.
Measurement of the effectiveness of smooth muscle relaxant compositions may then be determined by measurement of the smooth muscle relaxation response, in a manner analogous to contractile response. See generally Wang, Poon and Pang, J. Pharm. Exp. Ther. 265:112-119, 1993 (incorporated herein by reference in its entirety). Briefly, tissue is first contracted with an agonist such as phenylephrine, usually at a concentration which results in 90% of the tissue's maximum contractile response (referred to EC90). At the steady state phase of the contractile response to the agonist, a cumulative dose-response curve for the smooth muscle relaxant may be determined. For each concentration of relaxant, a steady state is achieved and the relaxation response measured. […] For example, the EC50 of a relaxant is the effective concentration of the relaxant required to relax a pre-contracted muscle to 50% of its maximum contractile response.
(§1) Examples 5-7 present in vitro and in vivo results of the evaluation of the efficiency of the transition-metal nitrosyl complexes in relaxing blood vessels and lowering blood pressure. Sprague-Dawley rats (300-400g) were used for all experiments. Each group consisted of 1-6 rats for the in vivo experiments and 3-6 aortic rings for the in vitro experiments. Each aortic ring was from a different rat.
Example 5 presents the results of the evaluation of the efficacy of the transition metal nitrosyl complexes in blood vessel relaxation. In these in vitro experiments, phenylephrine pre-constricted rat aortae were subjected to increasing doses of the transition-metal nitrosyl complexes, and the relaxation of the rat aortae measured. […]

conscious rats = assay: Toxic dose (convulsion / death) in conscious rats in vivo; set-up: species or system rat (Sprague-Dawley); unit not given here; details: intravenous bolus; for Toxic dose: dose which caused convulsion: footnote a; for Toxic dose: dose which caused neither convulsion nor death: footnote c
Description: as §1
^a denotes dose which caused convulsion
^b denotes dose which caused death
^c denotes dose which caused neither convulsion nor death.
(§2) The rats were anaesthetized with halothane (4% in air for induction and 1.5% in air for surgery). A polyethylene cannula (PE50) was inserted into the left iliac artery for the measurement of mean arterial pressure (MAP) by a pressure transducer (P23DB, Gould Statham, Calif.). A PE50 cannula was also inserted into the iliac vein for the administration of the vehicle or a drug. The rats were then put into a small cage and given>6 hr to recover from the effects of anaesthesia and surgery before use. The rats were allowed to move freely during the recovery phase as well as during the conduction of the experiments as described in Wang and Pang, Br. J. Pharmacol. 103:2004-8, 1991. Only one dose-response curve of a metal nitrosyl complex, sodium nitroprusside, nitroglycerin or vehicle (0.9% NaCl solution or dimethylsulfoxide solution) was constructed in each rat. All drugs or vehicle were intravenous bolus injected at dose-intervals of 3-7 min, to allow the recovery of depressor responses, before the injection of the next higher dose.

[2] = test system: mean arterial pressure in conscious rats; assay: Depression of mean arterial pressure in conscious rats in vivo; set-up: species or system rat (Sprague-Dawley); details: intravenous bolus
Experimental: Likewise, in vivo tests may also be readily developed and utilized in order to determine the efficacy (and therapeutically effective amount) of the transition-metal nitrosyl complexes described above. For example, within one aspect of the present invention, a series of transition-metal nitrosyl complexes were tested in vivo for their ability to reduce the mean arterial blood pressure of conscious rats in vivo. Briefly, as described in greater detail below in Example 6, conscious, unrestrained rats were intravenous bolus injected with the transition-metal nitrosyl complexes. Five of the complexes were determined to dose-dependently reduce mean arterial pressure with maximum depressor effects which ranged from -36 to -59 mm Hg. Maximum depressor effects of sodium nitroprusside and nitroglycerin under similar conditions were -58 and -56 mm Hg, respectively. […] The results of the effects of the transition-metal nitrosyl complexes on the depression of mean arterial pressure in conscious rats in vivo are summarized in Example 5 and Table 1.
as §1
Example 6 describes the results of the determination of the efficacy of the transition-metal nitrosyl complexes in reducing blood pressure of conscious, unrestrained rats. In these in vivo experiments, the depression of rat arterial pressure was measured as a function of transition-metal nitrosyl complex dose. Dose-response (pressure depression) curves were constructed and the capacities of the transition-metal nitrosyl complexes to reduce arterial pressure were compared and related to nitroglycerin and sodium nitroprusside. The results of these experiments are reported in terms of ED50 (effective dose to produce a 50% pressure depression response) and Emax (maximum decrease in blood pressure) and are summarized in Example 5, Table 1.
as §2

[3] = test system: phenylephrine-preconstricted rat aortic rings; assay: Tolerance: relaxation of rat aortic rings after pre-incubation with CpCr(NO)2 Cl or nitroglycerin; set-up: species or system rat (Sprague-Dawley); details: 1 h
Description: In addition to determining efficacy of transition-metal nitrosyl complexes in either in vitro or in vivo tests, it is also generally preferably to determine whether the composition induces tolerance. For example, within one embodiment of the invention, induction of tolerance by the transition-metal nitrosyl complex described above may be readily determined by exposing rat aortic rings to a transition-metal nitrosyl complex prior to relaxation determinations. More specifically, as described in greater detail 10 below in Example 7, intact rat aortic rings were pre-incubated with a typical transition- metal nitrosyl complex for one hour prior to examination of its concentration-relaxation effect in phenylephrine-preconstricted conditions. Unlike the relaxation response of nitroglycerin, the relaxation response of the transition-metal nitrosyl complexes was not diminished by pre-exposure of the aortic ring to the complex.
as §1
Example 7 presents the results of pre-exposing the rat aortae to the transition-metal nitrosyl complexes to evaluate the development of tolerance. In these experiments, the rat aortic rings were pretreated with a transition-metal nitrosyl complex prior to the measurement of dose-dependent relaxation as described above in Example 5.
In this study, the vehicles, CpCr(NO)2 Cl (10^-6 M), or nitroglycerin (3×10^-4 M) was added to the baths for 1 h, followed by the washout of drug or vehicle, preconstriction with phenylephrine and the construction of a concentration-relaxation curve of CpCr(NO)2 Cl.

blood vessels = details: cited from earlier work
[4] = pre-incubation nitroglycerin 3×10^-4 M

| SMILES | In vitro Emax (percent relaxation of phenylephrine-induced contraction) [1] [%] | EC50 [1] [nM] | Toxic dose: dose which caused convulsion (conscious rats) | In vivo ED50 (effective dose to produce a 50% pressure depression response) [2] [mg/kg] | In vivo Emax (maximum decrease in blood pressure) [2] [mmHg] | other results |
| --- | --- | --- | --- | --- | --- | --- |
| O=N[O][Cr+]([N]=O)[N]=O.c1cc[cH-]c1 [CpCr(NO)2 (ONO), Nitrito(.eta.^5 -cyclopentadienyl)dinitrosylchromium] | -98 | 100 | 1280 | 0.0015 | -45 | – |
| O=[N][Fe]1([N]=O)[I][Fe]([N]=O)([N]=O)[I]1 [[Fe(NO)2 I]2, Iodo(dinitrosyl)iron Dimer] | -108 | 20000 | – | 0.554 | -51 | Toxic dose: dose which caused neither convulsion nor death (conscious rats): 5120 |
| O=[N+]([O-])OCC(CO[N+](=O)[O-])O[N+](=O)[O-] [Nitroglycerin, glyceryl trinitrate, reference compound] | – | 300 | – | – | -56 | Emax ([1]; read-out: In vitro Emax (percent relaxation of phenylephrine-induced contraction)): -104%; ED50 ([2]; Rattus norvegicus, read-out: In vivo ED50 (effective dose to produce a 50% pressure depression response)): 0.2 mg/kg; maximum depressor effect [2]: -56 mm Hg; effect of pre-incubation with nitroglycerin on EC50 [3, 4]: EC50 significantly increased; effect of pre-incubation with nitroglycerin on Emax [3, 4]: Emax unaltered; tolerance on continual exposure (blood vessels): reduction in the ability of these compounds to vasodilate blood vessels |
| O=[N][Cr+]([Cl])[N]=O.c1cc[cH-]c1 [CpCr(NO)2 Cl] | -118 | 110 | 2,000 | 0.0044 | -42 | effect of pre-incubation with CpCr(NO)2 Cl on EC50 and Emax ([3]; pre-incubation CpCr(NO)2 Cl 10^-6 M): did not alter the EC50 or Emax; effect of pre-incubation with nitroglycerin on EC50 and Emax ([3]; pre-incubation nitroglycerin 3×10^-4 M, cross-tolerance): did not alter the EC50 or Emax |
| O=[N][Mo+]([Cl])[N]=O.c1cc[cH-]c1 [CpMo(NO)2 Cl, chloro(.eta.^5 -cyclopentadienyl)nitrosylmolybdenum] | -113 | 17000 | – | 0.4 | -59 | Toxic dose: dose which caused death (conscious rats; footnote b): 25,600 |
| C1CCNCC1.O=[N][Cr+][I].c1cc[cH-]c1 [CpCr(NO)(pip)I] | -110 | 450 | – | – | – | – |
| O=[N][W+].[C-]#[O+].[C-]#[O+].c1cc[cH-]c1 [CpW(NO)(CO)2, dicarbonyl(.eta.^5 -cyclopentadienyl)nitrosyltungsten] | -107 | 2500 | 500 | – | – | In vivo Emax (maximum decrease in blood pressure), in words ([2]; biphasic denotes depressor followed by pressor response): biphasic |
| O=[N][W+]([Cl])[N]=O.c1cc[cH-]c1 [CpW(NO)2 Cl] | -122 | 2000 | – | 2.976 | -36 | Toxic dose: dose which caused neither convulsion nor death (conscious rats): 40,000 |

Reference: patent publication US5811463A, “Compositions and method for relaxing smooth muscles” (University of British Columbia, priority 1996, dated 1998)
